# According to EP3262942A1, “SELENODIARYLS FOR USE AS MICROBICIDE OR AS MEDICINE” (Evonik Degussa GmbH, priority 2016, dated 2018):
# Experiments:
# Paecilomyces variotii = assay: Growth test in microtiter plates, HA medium, 24 h, visual evaluation; assay type: cell-based; set-up: key: +: kein Wachstum im Vergleich zur Wachstumskontrolle; -: Wachstum wie Wachstumskontrolle
# P. infestans = assay: microbe, parasite or virus in culture; assay type: cell-based, Phytophthora infestans; conditions: Phytophthora infestans, 24 h, read-out: Aktivität gegenüber P. infestans
# Botrytis cinerea = assay: microbe, parasite or virus in culture; assay type: cell-based; conditions: for inhibition of growth at 5 µg/mL / inhibition of growth at 10 µg/mL / inhibition of growth at 25 µg/mL / inhibition of growth at 50 µg/mL: Botrytis cinerea, 24 h, read-out: Aktivität gegenüber B. cinerea
# Mucor miehei = assay: Growth test in microtiter plates, HA medium, 24 h, visual evaluation; assay type: cell-based; set-up: key to Aktivität gegenüber M. miehei: +: kein Wachstum im Vergleich zur Wachstumskontrolle; -: Wachstum wie Wachstumskontrolle
# Candida albicans = assay: as above; assay type: cell-based; set-up: key: +: kein Wachstum im Vergleich zur Wachstumskontrolle; -: Wachstum wie Wachstumskontrolle
# M. grisea CM = assay: microbe, parasite or virus in culture; assay type: cell-based, Magnaporthe grisea; conditions: Pyricularia grisea, 24 h, read-out: Aktivität gegenüber M. grisea CM
# Lepidium sativum = assay: Crop plant growth test, seeds on filter discs, 4 days, visual evaluation; assay type: in vivo
# How it was run: (§1)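 Compounds dried from DMSO onto filter discs; about 12 seeds per well with 200 µl sterile tap water, incubated 4 days in a humid chamber under 16 h light/8 h dark. Visual scoring: + means at least 75 % growth inhibition versus control, − means less than 75 %.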
# Setaria italica = assay: as above; assay type: in vivo
# How it was run: as §1
# Penicillium notatum = assay: Growth test in microtiter plates, HA medium, 24 h, visual evaluation; assay type: cell-based; set-up: key: +: kein Wachstum im Vergleich zur Wachstumskontrolle; -: Wachstum wie Wachstumskontrolle
# [1] = tested on: alle getesteten Pathogene; assay type: cell-based; conditions: 5-50 µg/mL
# M. grisea H2O = assay: microbe, parasite or virus in culture; assay type: cell-based, Magnaporthe grisea; conditions: Pyricularia grisea, H2O, 24 h, read-out: Aktivität gegenüber M. grisea H2O
SMILES,Aktivität gegenüber P. variotii (Paecilomyces variotii; 10µg/mL),Aktivität gegenüber P. variotii (Paecilomyces variotii; 50µg/mL),inhibition of growth at 5 µg/mL (P. infestans) [%],inhibition of growth at 10 µg/mL (P. infestans) [%],inhibition of growth at 25 µg/mL (P. infestans) [%],inhibition of growth at 50 µg/mL (P. infestans) [%],inhibition of growth at 5 µg/mL (Botrytis cinerea) [%],inhibition of growth at 10 µg/mL (Botrytis cinerea) [%],inhibition of growth at 25 µg/mL (Botrytis cinerea) [%],inhibition of growth at 50 µg/mL (Botrytis cinerea) [%],Aktivität gegenüber M. miehei (Mucor miehei; 10µg/mL),Aktivität gegenüber M. miehei (Mucor miehei; 50µg/mL),Aktivität gegenüber C. albicans (Candida albicans; 10µg/mL),Aktivität gegenüber C. albicans (Candida albicans; 50µg/mL),inhibition of growth at 5 µg/mL (M. grisea CM) [%],inhibition of growth at 10 µg/mL (M. grisea CM) [%],inhibition of growth at 25 µg/mL (M. grisea CM) [%],inhibition of growth at 50 µg/mL (M. grisea CM) [%],Aktivität gegenüber Nutzpflanzen: L. sativum (Lepidium sativum; 10µg/R),Aktivität gegenüber Nutzpflanzen: L. sativum (Lepidium sativum; 20µg/R),also measured
"CCC(C)(C)c1cc([Se]c2cc(C(C)(C)CC)cc(C(C)(C)CC)c2O)c(O)c(C(C)(C)CC)c1 [Verbindung 16, Bis(3,5-di(1,1-dimethylpropyl)-2-hydroxyphenyl)selen]",-,-,0 to 25,0 to 25,0 to 25,0 to 25,0 to 25,0 to 25,0 to 25,0 to 25,-,-,-,-,0 to 25,0 to 25,0 to 25,0 to 25,- (weniger als 75 % Wachstumshemmung im Vergleich zur Kontrolle),- (weniger als 75 % Wachstumshemmung im Vergleich zur Kontrolle),Aktivität gegenüber Nutzpflanzen: L. sativum (Lepidium sativum; 50µg/R): - (weniger als 75 % Wachstumshemmung im Vergleich zur Kontrolle); Aktivität gegenüber Nutzpflanzen: S. italica (Setaria italica; 10µg/R): - (weniger als 75 % Wachstumshemmung im Vergleich zur Kontrolle); Aktivität gegenüber Nutzpflanzen: S. italica (Setaria italica; 20µg/R): - (weniger als 75 % Wachstumshemmung im Vergleich zur Kontrolle); Aktivität gegenüber Nutzpflanzen: S. italica (Setaria italica; 50µg/R): - (weniger als 75 % Wachstumshemmung im Vergleich zur Kontrolle); Aktivität gegenüber P. notatum (Penicillium notatum; 10µg/mL): -; Aktivität gegenüber P. notatum (Penicillium notatum; 50µg/mL): -; Aktivität im Wachstums- und Keimungshemmungstest gegen die getesteten Pathogene [1]: weder im Wachstums- noch im Keimungshemmungstest im verwendeten Konzentrationsbereich eine entsprechende Aktivität; inhibition of growth at 5 µg/mL (M. grisea H2O): 0 to 25%; inhibition of growth at 10 µg/mL (M. grisea H2O): 0 to 25%; inhibition of growth at 25 µg/mL (M. grisea H2O): 0 to 25%; inhibition of growth at 50 µg/mL (M. grisea H2O): 0 to 25%
"Cc1cc(C(C)C)c(O)c([Se]c2c(C)c(C)cc(C(C)C)c2O)c1C [Verbindung 18, Bis(5,6-dimethyl-2-hydroxy-3-isopropylphenyl)selen]",-,-,0 to 25,0 to 25,0 to 25,0 to 25,0 to 25,0 to 25,0 to 25,0 to 25,-,-,-,-,0 to 25,0 to 25,0 to 25,0 to 25,- (weniger als 75 % Wachstumshemmung im Vergleich zur Kontrolle),- (weniger als 75 % Wachstumshemmung im Vergleich zur Kontrolle),Aktivität gegenüber Nutzpflanzen: L. sativum (Lepidium sativum; 50µg/R): - (weniger als 75 % Wachstumshemmung im Vergleich zur Kontrolle); Aktivität gegenüber Nutzpflanzen: S. italica (Setaria italica; 10µg/R): - (weniger als 75 % Wachstumshemmung im Vergleich zur Kontrolle); Aktivität gegenüber Nutzpflanzen: S. italica (Setaria italica; 20µg/R): - (weniger als 75 % Wachstumshemmung im Vergleich zur Kontrolle); Aktivität gegenüber Nutzpflanzen: S. italica (Setaria italica; 50µg/R): - (weniger als 75 % Wachstumshemmung im Vergleich zur Kontrolle); Aktivität gegenüber P. notatum (Penicillium notatum; 10µg/mL): -; Aktivität gegenüber P. notatum (Penicillium notatum; 50µg/mL): -; Aktivität im Wachstums- und Keimungshemmungstest gegen die getesteten Pathogene [1]: weder im Wachstums- noch im Keimungshemmungstest im verwendeten Konzentrationsbereich eine entsprechende Aktivität; inhibition of growth at 5 µg/mL (M. grisea H2O): 0 to 25%; inhibition of growth at 10 µg/mL (M. grisea H2O): 0 to 25%; inhibition of growth at 25 µg/mL (M. grisea H2O): 0 to 25%; inhibition of growth at 50 µg/mL (M. grisea H2O): 0 to 25%
"Cc1cc([Se]c2cc(C)c(O)c(C)c2)cc(C)c1O [Verbindung 19, Bis(3,5-dimethyl-4-hydroxyphenyl)selen]",-,-,0 to 25,50 to 75,50 to 75,0 to 25,25 to 50,> 75,> 75,0 to 25,+,+,-,-,> 75,> 75,> 75,> 75,- (weniger als 75 % Wachstumshemmung im Vergleich zur Kontrolle),- (weniger als 75 % Wachstumshemmung im Vergleich zur Kontrolle),"mikrobizide Wirksamkeit gegenüber B. cinerea (Botrytis cinerea): mikrobizide Wirksamkeit; Aktivität gegenüber Nutzpflanzen: L. sativum (Lepidium sativum; 50µg/R): - (weniger als 75 % Wachstumshemmung im Vergleich zur Kontrolle); Aktivität gegenüber Nutzpflanzen: S. italica (Setaria italica; 10µg/R): + (mind. 75 % Wachstumshemmung im Vergleich zur Kontrolle); Aktivität gegenüber Nutzpflanzen: S. italica (Setaria italica; 20µg/R): + (mind. 75 % Wachstumshemmung im Vergleich zur Kontrolle); Aktivität gegenüber Nutzpflanzen: S. italica (Setaria italica; 50µg/R): + (mind. 75 % Wachstumshemmung im Vergleich zur Kontrolle); Effekt auf S. italica (Setaria italica; […]): wachstumshemmenden Effekt; Aktivität gegenüber P. notatum (Penicillium notatum; 10µg/mL): -; Aktivität gegenüber P. notatum (Penicillium notatum; 50µg/mL): +; Aktivität im Wachstums- und Keimungshemmungstest gegen die getesteten Pathogene [1]: deutliche Aktivität gegenüber allen getesteten Pathogenen, mit Ausnahme von C. albicans; inhibition of growth at 5 µg/mL (M. grisea H2O): > 75%; inhibition of growth at 10 µg/mL (M. grisea H2O): > 75%; inhibition of growth at 25 µg/mL (M. grisea H2O): > 75%; inhibition of growth at 50 µg/mL (M. grisea H2O): > 75%"
"COc1cc(C)cc([Se]c2cc(C)cc(OC)c2O)c1O [Verbindung 20, Bis(2-hydroxy-3-methoxy-5-methylphenyl)selen]",-,-,0 to 25,0 to 25,> 75,> 75,0 to 25,0 to 25,0 to 25,0 to 25,-,-,-,-,25 to 50,> 75,> 75,> 75,- (weniger als 75 % Wachstumshemmung im Vergleich zur Kontrolle),- (weniger als 75 % Wachstumshemmung im Vergleich zur Kontrolle),Aktivität gegenüber Nutzpflanzen: L. sativum (Lepidium sativum; 50µg/R): - (weniger als 75 % Wachstumshemmung im Vergleich zur Kontrolle); Aktivität gegenüber Nutzpflanzen: S. italica (Setaria italica; 10µg/R): - (weniger als 75 % Wachstumshemmung im Vergleich zur Kontrolle); Aktivität gegenüber Nutzpflanzen: S. italica (Setaria italica; 20µg/R): - (weniger als 75 % Wachstumshemmung im Vergleich zur Kontrolle); Aktivität gegenüber Nutzpflanzen: S. italica (Setaria italica; 50µg/R): - (weniger als 75 % Wachstumshemmung im Vergleich zur Kontrolle); Aktivität gegenüber P. notatum (Penicillium notatum; 10µg/mL): -; Aktivität gegenüber P. notatum (Penicillium notatum; 50µg/mL): -; Aktivität im Wachstums- und Keimungshemmungstest gegen die getesteten Pathogene [1]: fungizider Effekt; inhibition of growth at 5 µg/mL (M. grisea H2O): 25 to 50%; inhibition of growth at 10 µg/mL (M. grisea H2O): > 75%; inhibition of growth at 25 µg/mL (M. grisea H2O): > 75%; inhibition of growth at 50 µg/mL (M. grisea H2O): > 75%
